According to the supplement of paper PMC10883282:
Structures can show the parent of a compound that is named as a salt. ± gives the standard deviation of the averaged measurements.

System: HS729
Test: relative viability vs DMSO control (72 h) (fraction); higher = more viable cells
Summary of the method: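 Sarcoma cell lines were grown in 384-well plates seeded toward 80–90% confluence and exposed 24 h later to serially diluted compound. After 72 h at 37 °C and 5% CO2, with 0.1% DMSO vehicle and a 5 µM positive control on the plates, ATPLite was read. Relative viability, given as percent growth averaged over up to triplicate wells, was rescaled so that 1 is full and 0 is none.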

Row | Compound | relative viability (0.00017 µM) | relative viability (0.00051 µM) | relative viability (0.00152 µM) | relative viability (0.00457 µM) | relative viability (0.01372 µM) | relative viability (0.04115 µM) | relative viability (0.1235 µM) | relative viability (0.3704 µM) | relative viability (1.111 µM) | relative viability (3.333 µM) | relative viability (10 µM) | relative viability (2 pM) | relative viability (5 pM) | relative viability (15 pM) | relative viability (50 pM) | relative viability (0.00014 µM) | relative viability (0.00041 µM) | relative viability (0.0012 µM) | relative viability (0.0037 µM) | relative viability (0.011 µM) | relative viability (200 fM) | relative viability (600 fM)
1 | CCCS(=O)(=O)Nc1ccc(F)c(C(=O)c2c[nH]c3ncc(-c4ccc(Cl)cc4)cc23)c1F [Vemurafenib] | 0.9411 ± 0.0078 | 0.97 ± 0.024 | 0.949 ± 0.051 | 0.949 ± 0.05 | 0.962 ± 0.021 | 0.915 ± 0.03 | 0.955 ± 0.031 | 0.908 ± 0.013 | 0.9276 ± 0.0087 | 0.856 ± 0.065 | 0.73 ± 0.016 |  |  |  |  |  |  |  |  |  |  | 
2 | COCc1c(-c2cc3cc(C)cc(OC)c3s2)c2c(N)ncnn2c1CN1CCNC(=O)C1 [Rogaratinib] | 1.06 ± 0.024 | 0.957 ± 0.068 | 0.967 ± 0.036 | 0.91 ± 0.052 | 0.92 ± 0.11 | 0.882 ± 0.034 | 0.755 ± 0.041 | 0.645 ± 0.037 | 0.582 ± 0.039 | 0.485 ± 0.031 | 0.348 ± 0.024 |  |  |  |  |  |  |  |  |  |  | 
3 | C=CC(=O)N1CCC([C@@H]2CCNc3c(C(N)=O)c(-c4ccc(Oc5ccccc5)cc4)nn32)CC1 [Zanubrutinib] | 1.06 ± 0.046 | 1.07 ± 0.06 | 1.05 ± 0.061 | 1.05 ± 0.072 | 1.06 ± 0.082 | 1.04 ± 0.099 | 1.06 ± 0.062 | 1.03 ± 0.095 | 0.961 ± 0.094 | 1.02 ± 0.074 | 0.873 ± 0.077 |  |  |  |  |  |  |  |  |  |  | 
4 | COc1cccc2c1C(=O)c1c(O)c3c(c(O)c1C2=O)C[C@@](O)(C(=O)CO)C[C@@H]3O[C@H]1C[C@H](N)[C@H](O)[C@H](C)O1 [Doxorubicin Hydrochloride] | 0.93 ± 0.021 | 0.93 ± 0.047 | 0.949 ± 0.054 | 0.946 ± 0.055 | 0.81 ± 0.029 | 0.6943 ± 0.0048 | 0.525 ± 0.041 | 0.303 ± 0.017 | 0.258 ± 0.0095 | 0.136 ± 0.0072 | 0.118 ± 0.0061 |  |  |  |  |  |  |  |  |  |  | 
5 | CC(C)NC(=O)C1CCC(n2c(NC(=O)c3ccc(F)cc3)nc3ccc(CN4CCC(C(C)(C)O)CC4)cc32)CC1 (stereo not drawn) [Belizatinib] | 0.93 ± 0.018 | 0.952 ± 0.042 | 0.967 ± 0.057 | 0.945 ± 0.027 | 0.949 ± 0.061 | 0.9059 ± 0.0065 | 0.836 ± 0.043 | 0.695 ± 0.041 | 0.602 ± 0.04 | 0.526 ± 0.02 | 0.42 ± 0.053 |  |  |  |  |  |  |  |  |  |  | 
6 | COc1cc2/c(=N/c3ccc(Br)cc3F)nc[nH]c2cc1OCC1CCN(C)CC1 [Vandetanib] | 0.915 ± 0.04 | 0.896 ± 0.083 | 0.899 ± 0.031 | 0.8994 ± 0.0041 | 0.871 ± 0.022 | 0.843 ± 0.047 | 0.857 ± 0.026 | 0.834 ± 0.068 | 0.746 ± 0.055 | 0.663 ± 0.03 | 0.028 ± 0.0075 |  |  |  |  |  |  |  |  |  |  | 
7 | C[C@@H]1CCN(C(=O)CC#N)C[C@@H]1N(C)c1ncnc2[nH]ccc12 [Tofacitinib] | 1.03 ± 0.017 | 0.957 ± 0.029 | 0.936 ± 0.031 | 0.927 ± 0.036 | 0.889 ± 0.036 | 0.835 ± 0.065 | 0.802 ± 0.029 | 0.828 ± 0.013 | 0.861 ± 0.03 | 0.846 ± 0.02 | 0.75 ± 0.059 |  |  |  |  |  |  |  |  |  |  | 
8 | Cn1cnc2c(F)c(Nc3ccc(Br)cc3F)c(C(=O)NOCCO)cc21 [Binimetinib] | 1.07 ± 0.013 | 1.05 ± 0.063 | 1.06 ± 0.12 | 1.01 ± 0.077 | 0.986 ± 0.035 | 0.933 ± 0.052 | 0.898 ± 0.019 | 0.906 ± 0.023 | 0.906 ± 0.046 | 0.856 ± 0.013 | 0.811 ± 0.012 |  |  |  |  |  |  |  |  |  |  | 
9 | Cc1nc(-c2cn3c(n2)-c2ccc(-c4cnn(C(C)(C)C(N)=O)c4)cc2OCC3)n(C(C)C)n1 [Taselisib] | 0.913 ± 0.018 | 0.935 ± 0.041 | 0.893 ± 0.045 | 0.891 ± 0.076 | 0.798 ± 0.066 | 0.756 ± 0.062 | 0.644 ± 0.053 | 0.629 ± 0.019 | 0.5241 ± 0.0042 | 0.487 ± 0.013 | 0.429 ± 0.014 |  |  |  |  |  |  |  |  |  |  | 
10 | Nc1cc(C(F)(F)F)c(-c2cc(N3CCOCC3)nc(N3CCOCC3)n2)cn1 [Buparlisib] | 0.937 ± 0.034 | 0.95 ± 0.015 | 0.936 ± 0.046 | 0.906 ± 0.083 | 0.902 ± 0.062 | 0.89 ± 0.012 | 0.812 ± 0.052 | 0.702 ± 0.059 | 0.568 ± 0.053 | 0.327 ± 0.023 | 0.274 ± 0.026 |  |  |  |  |  |  |  |  |  |  | 
11 | Cc1cnc(Nc2ccc(OCCN3CCCC3)cc2)nc1Nc1cccc(S(=O)(=O)NC(C)(C)C)c1 [Fedratinib] | 1.03 ± 0.038 | 0.948 ± 0.033 | 0.99 ± 0.02 | 0.928 ± 0.047 | 0.924 ± 0.05 | 0.888 ± 0.021 | 0.805 ± 0.033 | 0.649 ± 0.026 | 0.497 ± 0.0061 | 0.263 ± 0.025 | 0.0101 ± 0.0019 |  |  |  |  |  |  |  |  |  |  | 
12 | COc1cc2c(Oc3ccc4[nH]c(C)cc4c3F)ncnc2cc1OCCCN1CCCC1 [Cediranib] | 0.964 ± 0.077 | 0.991 ± 0.077 | 0.954 ± 0.044 | 0.962 ± 0.086 | 0.991 ± 0.045 | 0.968 ± 0.057 | 0.94 ± 0.059 | 0.8 ± 0.1 | 0.665 ± 0.039 | 0.834 ± 0.024 | 0.83 ± 0.026 |  |  |  |  |  |  |  |  |  |  | 
13 | CC(=O)Nc1cccc(-n2c(=O)n(C3CC3)c(=O)c3c(Nc4ccc(I)cc4F)n(C)c(=O)c(C)c32)c1 [Trametinib] | 1.05 ± 0.081 | 0.991 ± 0.036 | 0.918 ± 0.066 | 0.941 ± 0.051 | 0.789 ± 0.021 | 0.766 ± 0.013 | 0.73 ± 0.031 | 0.661 ± 0.018 | 0.638 ± 0.029 | 0.628 ± 0.033 | 0.611 ± 0.031 |  |  |  |  |  |  |  |  |  |  | 
14 | CC(C)N1CCN(Cc2cnc(-c3cc(-c4cccc5[nH]ccc45)cc4[nH]ncc34)o2)CC1 [Nemiralisib] | 1.06 ± 0.022 | 0.984 ± 0.026 | 0.98 ± 0.067 | 0.938 ± 0.038 | 0.978 ± 0.059 | 0.97 ± 0.067 | 0.892 ± 0.012 | 0.909 ± 0.063 | 0.787 ± 0.029 | 0.653 ± 0.037 | 0.52 ± 0.029 |  |  |  |  |  |  |  |  |  |  | 
15 | Cc1cc(Nc2ncnc3ccc(NC4=NC(C)(C)CO4)cc23)ccc1Oc1ccn2ncnc2c1 [Tucatinib] | 1.05 ± 0.04 | 1.05 ± 0.028 | 1.06 ± 0.029 | 0.987 ± 0.06 | 0.974 ± 0.032 | 0.965 ± 0.061 | 0.967 ± 0.015 | 0.963 ± 0.032 | 0.957 ± 0.034 | 0.924 ± 0.071 | 0.909 ± 0.056 |  |  |  |  |  |  |  |  |  |  | 
16 | COc1cc2c(cc1O)CCN[C@]21CS[C@@H]2c3c(OC(C)=O)c(C)c4c(c3[C@H](COC1=O)N1[C@@H]2[C@H]2c3c(cc(C)c(OC)c3O)C[C@@H]([C@@H]1O)N2C)OCO4 [Trabectedin] |  |  |  |  |  |  |  |  |  |  |  | 0.999 ± 0.056 | 0.952 ± 0.019 | 0.957 ± 0.067 | 0.859 ± 0.044 | 0.557 ± 0.15 | 0.137 ± 0.14 | 0.183 ± 0.041 | 0.166 ± 0.0097 | 0.124 ± 0.0083 | 1.02 ± 0.048 | 1.05 ± 0.034
17 | C[C@@H]1COCCN1c1cc(-c2ccnn2C)c2ccnc(-c3ccn[nH]3)c2n1 | 0.945 ± 0.068 | 0.894 ± 0.045 | 0.92 ± 0.071 | 0.873 ± 0.041 | 0.849 ± 0.036 | 0.804 ± 0.04 | 0.681 ± 0.019 | 0.634 ± 0.018 | 0.469 ± 0.017 | 0.403 ± 0.033 | 0.373 ± 0.012 |  |  |  |  |  |  |  |  |  |  | 
18 | Cc1cc(C)c(/C=C2\C(=O)Nc3ccccc32)[nH]1 [Semaxanib] | 0.893 ± 0.093 | 0.895 ± 0.11 | 0.895 ± 0.074 | 0.889 ± 0.093 | 0.871 ± 0.086 | 0.883 ± 0.097 | 0.853 ± 0.078 | 0.821 ± 0.069 | 0.762 ± 0.07 | 0.747 ± 0.057 | 0.613 ± 0.036 |  |  |  |  |  |  |  |  |  |  | 
